Legend:
[1] = target: SLC41A1-related Na+/Mg2+ exchanger (Homo sapiens, UniProt Q8IVJ1); experiment: Modulators of SLC41A1-related Na+/Mg2+ exchanger activity (Table 3); format: cell-based; settings: at the dosage given, where given;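 also: listed substances are classed by whether they raise or lower SLC41A1-related Na+/Mg2+ exchanger activity, acting directly on the protein or through cellular signalling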
[2] = system: HEK293-(SLC41A1) cells; experiment: Proliferation (cell index) of HEK293-(SLC41A1) cells; settings: imipramine 250 μM, dB-cAMP 100 μM, added 24 hours after seeding; compared to controls
[3] = target: hSLC41A1 (Homo sapiens, UniProt Q8IVJ1); experiment: Mg2+ efflux ([Mg2+]i decrease over 20 min) by mag-fura 2 FF-spectrofluorometry in +tet HEK293-(SLC41A1) cells; settings: for Mg2+ efflux: Mg2+-free medium, [Na+]e 145 mM; for Effect on SLC41A1-mediated Mg2+ efflux (in words): summary statement
Sequence of hSLC41A1 (Q8IVJ1 whole entry): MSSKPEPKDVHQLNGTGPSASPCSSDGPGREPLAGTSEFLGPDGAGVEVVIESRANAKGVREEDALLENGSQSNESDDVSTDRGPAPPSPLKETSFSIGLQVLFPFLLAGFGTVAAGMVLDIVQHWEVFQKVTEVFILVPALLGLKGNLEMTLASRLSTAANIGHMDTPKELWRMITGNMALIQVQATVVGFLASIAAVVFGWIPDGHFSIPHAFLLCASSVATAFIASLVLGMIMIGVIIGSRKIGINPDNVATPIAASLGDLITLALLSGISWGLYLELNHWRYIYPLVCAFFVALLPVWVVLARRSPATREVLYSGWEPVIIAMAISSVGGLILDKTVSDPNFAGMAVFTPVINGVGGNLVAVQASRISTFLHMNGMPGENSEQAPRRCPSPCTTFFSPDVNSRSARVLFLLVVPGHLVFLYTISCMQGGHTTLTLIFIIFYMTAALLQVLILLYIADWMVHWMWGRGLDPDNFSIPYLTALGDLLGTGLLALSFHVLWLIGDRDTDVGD
Description: Loading of cells with 7.5 μmol.l^−1 mag-fura 2 AM (Molecular Probes, Eugene, Oreg. USA) was performed for 30 minutes at 37° C. in the presence of loading facilitator Pluronic F-127 (Molecular probes). After being washed in CMF-HBS+, cells were incubated for a further 30 minutes at 37° C. to allow for complete de-esterification of the fluorescence probe, washed twice in CMF-HBS+ to remove extracellular mag-fura 2 and stored in CMF-HBS supplemented with 10 mmol.l^−1 HEPES, 5 mmol.l^−1 glucose and 0.4 mmol.l^−1 Mg^2+ until being Mg^2+-loaded before measurements of the Mg^2+ efflux capacity. The latter was determined as the intracellular Mg^2+ concentration ([Mg^2+]i) decrease over a 20-min period. Directly before the efflux experiments, −tet and +tet HEK293-(SLC41A1) were Mg-loaded by a 20-min incubation in CMF-HBS+ containing 0, 2, 5 or 10 mmol.l^−1 Mg. […] After loading, the remaining extracellular Mg^2+ was removed by washing the cells twice in CMF-HBS+ and, after re-suspending the cells in CMF-HBS+, measurements were started. To determine the influence of varying extracellular [Na^+], measuring solutions were prepared by diluting the CMF-HBS+ containing 145 mM Na^+ with appropriate volumes of a completely Na^+- and Mg^2+-free PBS. To investigate the effect of HCO3^− on Mg^2+ efflux, completely Ca^2+- and Mg^2+-free medium 199 completed with 10 mmol.l^−1 HEPES and 1.36 mmol.l^−1 L-glutamine (CMF-M199+) with Hank's (0.35 g/l NaHCO3) or Earl's (2.2 g/l NaHCO3) salts were used during Mg-loading and measurements. To ensure a stable pH value, the high-HCO3^− media were pre-equilibrated with 95% air-5% CO2.
Measurements were made at 37° C. in 3 ml cuvettes containing 2 ml cell suspension (CMF-HBS+ or CMF-M199+ with a cytocrit of 10%) under stirring. [Mg^2+]i was determined by measuring the fluorescence of the probe-loaded cells in a spectrofluorometer (LS50-B, PerkinElmer Life Science, Wellesley, Mass. USA) by using the fast filter accessory, which allowed fluorescence to be measured at 20-ms intervals with excitation at 340 and 380 nm, and emission at 515 nm. [Mg^2+]i values were calculated from the 340/380-nm ratio according to the formula of Grynkiewicz et al. (1981) by using the software FL WinLab version 4.0 (PerkinElmer Life Science). A dissociation constant of 1.5 mmol.l^−1 for the mag-fura 2/Mg^2+ complex was used for calculations; minimum (Rmin) and maximum (Rmax) ratios were determined at the end of each experiment by using digitonin. Rmax was found by the addition of 25 mmol.l^−1 MgCl2 in the absence of Ca^2+, whereas Rmin was obtained by addition of 50 mmol.l^−1 EDTA, pH 7.2, to remove all Mg^2+ from the solution. For data evaluation, 10-second data sets each were averaged at the beginning of the measurement and then always after 50 seconds. The final [Mg^2+]i was determined as the mean [Mg^2+]i of the last 10 seconds of the measurement. Thus, for the calculation of any given [Mg^2+]i, 500 data points were used. If not otherwise stated, data are presented as means±standard error (SE).

Sequence of SLC41A1-related Na+/Mg2+ exchanger (Q8IVJ1 whole entry): as above

Molecule | Effect on Na+/Mg2+ exchanger [1] | also measured
Nc1ncnc2c1nc(Cl)n2[C@@H]1O[C@@H]2COP(=O)(O)O[C@H]2[C@H]1O [8-Cl-cAMP] | activation | –
Nc1nc2c(nc(Br)n2[C@@H]2O[C@@H]3COP(=O)(O)O[C@H]3[C@H]2O)c(=O)[nH]1 [8-bromo-cyclic GMP] | activation | –
C[C@]12CCC(=O)C=C1CC[C@@H]1[C@@H]2[C@@H](O)C[C@]2(C=O)[C@@H](C(=O)CO)CC[C@@H]12 [Aldosterone] | activation | –
N=C(N)NC(=O)c1nc(Cl)c(N)nc1N [Amiloride, 3,5-diamino-6-chloro-N-(diaminomethylidene)pyrazine-2-carbox-amide] | Inhibition | –
CCCCC/C=C\C/C=C\C/C=C\C/C=C\CCCC(=O)O [Arachidonic acid, (5Z,8Z,11Z,14Z)-icosa-5,8,11,14-tetraenoic acid] | activation | –
N/C(=N\C(=O)c1nc(Cl)c(N)nc1N)NCc1ccccc1 [Benzamil, 3,5-diamino-N-[(1E)-amino(benzylamino)methylidene]-6-chloropyrazine-2-carboxamide] | Inhibition | –
COc1c(O)c2c(=O)cc(OC)c3c4c(OC)cc(=O)c5c(O)c(OC)c(CC(C)OC(=O)c6ccccc6)c(c(c1CC(C)OC(=O)Oc1ccc(O)cc1)c23)c54 (stereo not shown) [Calphostin C, 1-[3,10-dihydroxy-12-[2-(4-hydroxyphenoxy)-carbonyloxypropyl]-2,6,7,11-tetramethoxy-4,9-dioxoperylen-1-yl]propan-2-yl benzoate] | inhibition | –
O=S(=O)([O-])c1cc(N=C=S)ccc1CCc1ccc(N=C=S)cc1S(=O)(=O)[O-].[Na+].[Na+] [DIDS, 4′,4′-diisothiocyanatodihydrostilbene-′,2′-disulfonic acid, disodium salt] | Inhibition | –
CCN(CC)CC(=O)Nc1c(C)cccc1C [Lidocaine, 2-(diethylamino)-N-(2,6-dimethylphenyl)-acetamide] | Inhibition | –
NC[C@H](O)c1ccc(O)c(O)c1 [Norepinephrine] | activation | –
O=c1onc2cnc3ccccc3n12 [ODQ, 1H-[1,2,4]oxadiazolo[4,3-α]quinoxaline-1] | inhibition | –
C[C@@H]1O[C@@H](O[C@H]2C[C@@H](O)[C@]3(CO)[C@H]4[C@H](O)C[C@]5(C)[C@@H](C6=CC(=O)OC6)CC[C@]5(O)[C@@H]4CC[C@]3(O)C2)[C@H](O)[C@H](O)[C@H]1O [Ouabain] | inhibition | –
CCCC(=O)O[C@@H]1[C@@H](C)[C@@]2(O)[C@@H](C=C(CO)C[C@]3(O)C(=O)C(C)=C[C@@H]23)[C@@H]2C(C)(C)[C@]12OC(=O)CCC [Phorbol 12,13-dibutyrate] | activation | –
Nc1ncnc2c1ncn2[C@@H]1O[C@@H]2COP(O)(=S)O[C@H]2[C@H]1O (stereo partly shown) [Rp-cAMP] | inhibition | –
C[C@@H]1C[C@@]2(NC(=O)CS2)[C@]2(O)O[C@@H]3C[C@@]4(CO)[C@@H](CC[C@@H]5[C@@H]4CC[C@]4(C)[C@@H](C6=CC(=O)OC6)CC[C@]54O)C[C@H]3O[C@@H]2O1 [UNBS-1450] | inhibition | –
C[C@]12CC[C@H](O)C[C@@]1(O)CC[C@@H]1[C@@H]2CC[C@]2(C)[C@@H](c3ccc(=O)oc3)C[C@H]3O[C@]132 [marinobufagenin] | inhibition | –
CO[C@H]1C[C@H](O[C@H]2CC[C@@]3(C)[C@H](CC[C@@H]4[C@@H]3CC[C@]3(C)[C@@H](C5=CC(=O)OC5)[C@@H](OC(C)=O)C[C@]43O)C2)O[C@@H](C)[C@@H]1O [oleandrin] | inhibition | –
Angiotensin II: hormone; vasoactive agent, vasoconstriction (via AT 1 receptor) (DRVYIHPF; Angiotensin-2; UniProt P01019 25-32, looked up) | activation | stimulation of SLC41A1-related Mg2+ efflux [3]: 19.5%; Effect on SLC41A1-mediated Mg2+ efflux (in words) [3]: stimulated

Second part, led by results:

Effect on Na+/Mg2+ exchanger [1] | Molecule | also measured
activation | C=C[C@@]1(C)CC(=O)[C@]2(O)[C@@]3(C)[C@@H](O)CCC(C)(C)[C@@H]3[C@H](O)[C@H](OC(C)=O)[C@@]2(C)O1 [Forskolin, [(3R,4aR,5S,6S,6aS,10S,10aR,10bS)-3-ethenyl-6,10,10b-trihydroxy-3,4a,7,7,10a-pentamethyl-1-oxo-5,6,6a,8,9,10-hexahydro-2H-benzo[f]chromen-5-yl] acetate] | –
inhibition | O=c1c(-c2ccc(O)cc2)coc2cc(O)cc(O)c12 [Genistein, 5,7-dihydroxy-3-(4-hydroxyphenyl)chromen-4-one] | –
Inhibition | CN(C)CCCN1c2ccccc2CCc2ccccc21 [Imipramine, 10,11-Dihydro-N,N-dimethyl-5H-dibenz-[b,f]azepin-5-propanamin] | Effect on proliferation of SLC41A1-overexpressing cells (in words) [2]: reduced the proliferation; Mg2+ efflux ([3]; 250 μM, Mg2+-loaded (20 min, 10 mM) +tet HEK293-(SLC41A1) cells, without inhibitor 341±35): 129±32 μM/20 min; Effect on SLC41A1-mediated Mg2+ efflux (in words) [3]: strongly decrease
activation | COc1ccc2c(c1)c(CC(=O)O)c(C)n2C(=O)c1ccc(Cl)cc1 [Indomethacin, 2-[1-(4-chlorobenzoyl)-5-methoxy-2-methylindol-3-yl]acetic acid] | –
Inhibition | CS(=O)(=O)O.N=C(N)SCCc1ccc(OCc2ccc([N+](=O)[O-])cc2)cc1 [KB-R7943, 2-(2-(4-(4-nitrobenzyloxy)-phenyl)ethyl)isothiourea methanesulfonate] | –
inhibition | CNC(=N)NCCC[C@H](N)C(=O)O [L-NMMA, NG-monomethyl-L-arginine] | –
activation | COCC(/C(C)=C/C(=N\O)C(N)=O)[N+](=O)[O-] (stereo not shown) [NOR1, (E)-4-methyl-2-[(E)-hydoxyimino]-5-nitro-6-methoxy-3-hexenamide] | –
Inhibition | COC(=O)C1=C(C)NC(C)=C(C(=O)OC)C1c1ccccc1[N+](=O)[O-] [Nifedipine, 3,5-dimethyl 2,6-dimethyl-4-(2-nitrophenyl)-1,4-di-hydropyridine-3,5-di-carboxylate] | –
activation | CCCCC[C@H](O)/C=C/[C@H]1[C@H](O)CC(=O)[C@@H]1C/C=C\CCCC(=O)O [PGE2, (Z)-7-[(1R,2R,3R)-3-hydroxy-2-[(E,3S)-3-hydroxyoct-1-enyl]-5-oxocyclopentyl]hept-5-enoic acid] | –
Inhibition | C=CC1CN2CCC1CC2C(O)c1ccnc2ccc(OC)cc12 (stereo not shown) [Quinidin, (2-ethenyl-4-azabicyclo [2.2.2]oct-5-yl)-(6-methoxyquinolin-4-yl)-methanol] | Mg2+ efflux ([3]; 100 μM quinidin, Mg2+-loaded (10 mM) +tet HEK293-(SLC41A1) cells, without inhibitor 327±71): 176±0.5 μM/20 min; Effect on SLC41A1-mediated Mg2+ efflux (in words) [3]: strongly decrease
Inhibition | CCOc1ccc(Oc2ccc(OCc3cc(F)ccc3F)cc2)c(N)c1 [SEA0400, 2-[4-[(2,5-difluoro-phenyl)methoxy]phenoxy]-5-ethoxyaniline] | –
inhibition | NCCS(=O)(=O)O [Taurine, 2-aminoethanesulfonic acid] | –
activation | CCCC(=O)Nc1ncnc2c1ncn2[C@@H]1O[C@@H]2COP(=O)(O)O[C@H]2[C@H]1OC(=O)CCC [dibutyryl-cAMP] | Effect on proliferation of SLC41A1-overexpressing cells (in words) [2]: stimulation of their proliferation; increase of SLC41A1-related Mg2+ efflux ([3]; dB-cAMP 100 μM, loading in 0 mM-Mg2+ solution, +tet cells): 36%; increase of SLC41A1-related Mg2+ efflux ([3]; dB-cAMP 100 μM, loading in 2 mM-Mg2+ solution, +tet cells): 13%; decrease of SLC41A1-related Mg2+ efflux ([3]; dB-cAMP 100 μM, loading in 10 mM-Mg2+ solution, +tet cells): 17%; Effect on SLC41A1-mediated Mg2+ efflux (in words) [3]: stimulated
activation | CC(C)NCC(O)c1ccc(O)c(O)c1 (stereo not shown) [isoproterenol] | –
inhibition | C[C@]12CC[C@H](O)C[C@H]1CC[C@@H]1[C@@H]2CC[C@]2(C)[C@@](O)(c3ccoc3)CC[C@]12O [rostafuroxin] | –
activation | Glucagon: hormone; modulator listed in Table 3 | –
inhibition | Insulin: hormone (via insulin receptor) | Effect on SLC41A1-mediated Mg2+ efflux (in words) [3]: inhibitory effect
inhibition | epidermal growth factor (EGF): mitogen | –
